≈ marks a conversion by molar mass, not a printed value.
Test system: S. aureus ATCC 29213
Test: In vitro susceptibility test, antimicrobial dilution method (CLSI), MIC
Type: cell-based
Details: Staphylococcus aureus, ATCC29213, read-out: MIC (Minimum Inhibitory Concentration)
Protocol: For all the tests performed, there was a positive control of antifungal activity using fluconazole (for Malassezia) and ceftriaxone (for the bacterial strains) and a negative control (absence of the compounds) wherein correct microbial growth was evaluated.

C[C@@H]1O[C@@H](O[C@@H]2[C@@H](O)[C@H](OCCc3ccc(O)c(O)c3)O[C@H](CO)[C@H]2OC(=O)/C=C/c2ccc(O)c(O)c2)[C@H](O)[C@H](O)[C@H]1O [Verbascoside, verbascoside]
MIC: 3000 µg/mL (≈ 4.8 mM)

Source: patent US20170304409A1, “COMPOSITIONS USEFUL FOR THE PREVENTION AND/OR TREATMENT OF INFECTIONS AND INFLAMMATIONS” (ISTITUTO PROFILATTICO E FARMACEUTICO CANDIOLI & C. SPA in …, priority 2014, published 2017)
